Measured values taken from article PMC9386018, “A lymphatic-absorbed multi-targeted kinase inhibitor for myelofibrosis therapy” (Nature Communications, 2022).
Values joined by “and” are separate entries in the source; they are usually repeats but may differ in a detail not shown here. Identical values can stand only once.

Tests used:
[1] = target: PI3Kγ (Homo sapiens, UniProt P48736); assay: Target kinase 10-point inhibition assay, PI3Kγ; type: biochemical; conditions: PI3K gamma, replicates
Experimental: (§1) Quantitation of kinase inhibition was carried out by Life Technologies (Madison, WI) using the SelectScreen profiling platforms Z’-LYTE^TM and Adapta^TM. Single-point broad panel kinome screening was performed at 2.5 µM LP-182 against all kinases within the Z’-LYTE^TM and Adapta^TM assays (321 kinase isoforms, holoenzymes, or mutant variants). The average percent kinase inhibition from replicate data was ranked low to high, converted to a compatible identifier format, then input into Coral Human Kinome Visualization software for presentation analysis. […] Scaling of evolutionary distance for PI kinases is only relative and is based on literature analysis[62],[63]. Average percent kinome inhibition values from replicate data are supplied in Source Data file. […]. Corrected data was normalized to vehicle treated control values, and dose response percent kinase activity was analyzed by non-linear regression for determination of IC50 values.

[2] = target: mTOR (Homo sapiens, UniProt P42345); assay: Target kinase 10-point inhibition assay, mTOR; type: biochemical; conditions: replicates
Experimental: as §1

[3] = target: Target kinase isoforms (PI3K, mTOR, RAF, MEK) (Homo sapiens, UniProt P42345); assay: Target kinase isoforms 10-point IC50 determination (Supplementary Fig. 7); type: biochemical; conditions: mTOR
Source text: The average percent kinase inhibition from replicate data was ranked low to high, converted to a compatible identifier format, then input into Coral Human Kinome Visualization software for presentation analysis. […] Scaling of evolutionary distance for PI kinases is only relative and is based on literature analysis[62],[63]. Average percent kinome inhibition values from replicate data are supplied in Source Data file. […] Corrected data was normalized to vehicle treated control values, and dose response percent kinase activity was analyzed by non-linear regression for determination of IC50 values.

[4] = test system: SET-2 cells; assay: SET-2 proliferation assay (CellTiter-Fluor); type: cell-based, human; conditions: 72 h
Experimental: Viable cells were counted by CellTiter-Fluor Assay (Promega) according to manufacturer’s protocol, and all fluorescence values were corrected by a no-cell control. […] Caspase activity was measured by Caspase-Glo 3/7 assay (Promega) according to the manufacturer’s protocol, and all luminescence values were corrected by a no-cell control. Dose response proliferation and Caspase activation data was normalized to vehicle treated control cells and analyzed by non-linear regression for determination of IC50 values. Data was generated from n = 3 independent experiments performed in replicate.

[5] = Pharmacokinetic analysis of plasma after intravenous and oral dosing; conditions: Supplementary Figure 6a, i.v., individual replicates

PI3Kγ, sequence (P48736 whole entry, canonical isoform): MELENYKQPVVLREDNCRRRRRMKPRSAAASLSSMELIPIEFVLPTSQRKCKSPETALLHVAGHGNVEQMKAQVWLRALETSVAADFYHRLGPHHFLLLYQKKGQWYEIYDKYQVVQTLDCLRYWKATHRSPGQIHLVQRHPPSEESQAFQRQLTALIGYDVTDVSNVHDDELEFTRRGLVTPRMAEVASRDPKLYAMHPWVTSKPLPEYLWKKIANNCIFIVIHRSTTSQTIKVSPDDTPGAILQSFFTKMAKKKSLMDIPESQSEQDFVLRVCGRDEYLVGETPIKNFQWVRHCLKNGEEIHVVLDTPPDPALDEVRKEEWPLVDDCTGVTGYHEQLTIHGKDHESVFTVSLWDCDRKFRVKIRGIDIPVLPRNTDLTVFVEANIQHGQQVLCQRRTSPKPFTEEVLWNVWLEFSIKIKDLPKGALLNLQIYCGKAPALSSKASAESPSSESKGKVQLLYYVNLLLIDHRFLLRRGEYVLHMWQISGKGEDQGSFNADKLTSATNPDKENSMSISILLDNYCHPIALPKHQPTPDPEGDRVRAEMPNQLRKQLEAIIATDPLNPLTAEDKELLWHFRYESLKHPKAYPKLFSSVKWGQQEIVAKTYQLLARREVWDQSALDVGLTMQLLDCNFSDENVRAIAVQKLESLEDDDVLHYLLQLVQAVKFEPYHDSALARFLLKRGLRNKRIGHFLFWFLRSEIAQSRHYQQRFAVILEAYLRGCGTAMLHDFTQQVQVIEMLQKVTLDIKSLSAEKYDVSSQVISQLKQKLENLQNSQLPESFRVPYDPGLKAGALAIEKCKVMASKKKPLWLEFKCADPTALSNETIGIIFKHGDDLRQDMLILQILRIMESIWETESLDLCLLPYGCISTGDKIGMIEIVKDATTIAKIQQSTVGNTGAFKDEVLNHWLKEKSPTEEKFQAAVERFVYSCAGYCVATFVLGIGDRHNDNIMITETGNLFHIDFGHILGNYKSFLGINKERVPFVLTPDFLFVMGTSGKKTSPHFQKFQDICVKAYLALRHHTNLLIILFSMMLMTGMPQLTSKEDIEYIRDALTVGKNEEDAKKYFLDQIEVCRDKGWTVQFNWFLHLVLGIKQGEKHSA

SMILES: O=C(NOCCOCCOCCOCCC(=O)N1CCN(c2cnc3ccc(-c4cnc(Cl)c(NS(=O)(=O)c5ccc(F)cc5)c4)cc3n2)CC1)c1ccc(F)c(F)c1Nc1ccc(I)cc1F [LP-182, N-(2-(2-(2-(3-(4-(7-(6-chloro-5-((4-fluorophenyl)sulfonamido)pyridin-3-yl)quinoxalin-2-yl)piperazin-1-yl)-3-oxopropoxy)ethoxy)ethoxy)ethoxy)-3,4-difluoro-2-((2-fluoro-4-iodophenyl)amino)benzamide]
- Kinase Activity (%) ([1]; 0.495 nM, 0.000495 µM): 106% and 101% and 126% and 100% and 96% and 89% and 105% and 98%
- Kinase Activity (%) ([1]; 1.52 nM, 0.00152 µM): 108% and 97% and 115% and 123% and 99% (2×) and 105% and 90% and 88% and 93%
- Kinase Activity (%) ([1]; 4.57 nM, 0.00457 µM): 89% and 94% (2×) and 106% and 98% and 93% and 87% and 82% and 77% and 92%
- Kinase Activity (%) ([1]; 41.2 nM, 0.0412 µM): 50% (2×) and 48% and 43% and 55% and 47% and 37% and 30% and 31% and 32%
- activity at 0.123 µM ([1]; 123 nM): 20%
- Kinase Activity (%) ([1]; 123 nM, 0.123 µM): 21% (3×) and 25% and 22% and 19% and 16% (2×) and 13%
- activity at […] ([1]; 370 nM): 6%
- Kinase Activity (%) ([1]; 1110 nM, 1.11 µM): 1% (4×) and 4% and 0% and 2% (2×) and 3% (2×)
- Kinase Activity (%) ([1]; 3330 nM, 3.33 µM): 0% (9×) and 1%
- Kinase Activity (%) ([1]; 10000 nM, 10 µM): 4% and 0% (8×) and 2%
- activity at 0.000495 µM ([2]; 0.495 nM): 95%
- Kinase Activity (%) ([2]; 0.495 nM, 0.000495 µM): 99% and 98% and 101% and 94% and 96%
- activity at 0.00152 µM ([2]; 1.52 nM): 97%
- Kinase Activity (%) ([2]; 1.52 nM, 0.00152 µM): 99% and 100% and 94% (2×)
- activity at 0.00457 µM ([2]; 4.57 nM): 91%
- Kinase Activity (%) ([2]; 4.57 nM, 0.00457 µM): 92% and 94% and 87% and 88%
- activity at 0.0412 µM ([2]; 41.2 nM): 52%
- Kinase Activity (%) ([2]; 41.2 nM, 0.0412 µM): 63% and 57% (2×) and 47% (2×)
- activity at 0.123 µM ([2]; 123 nM): 29%
- Kinase Activity (%) ([2]; 123 nM, 0.123 µM): 30% (2×) and 32% and 31%
- activity at […] ([2]; 370 nM): 13%
- Kinase Activity (%) ([2]; 1110 nM, 1.11 µM): 4% and 3% (2×) and 5% and 1% and 2%
- Kinase Activity (%) ([2]; 3330 nM, 3.33 µM): 0% (4×) and -1% and -2%
- Kinase Activity (%) ([2]; 10000 nM, 10 µM): 2% and -1% (4×) and 1%
- activity at 0.000495 µM ([3]; concentration 0.495 nM): 95%
- Kinase Activity (%) mTOR ([3]; concentration 0.495 nM, 0.000495 µM): 99% and 98% and 101% and 94% and 96%
- activity at 0.00152 µM ([3]; concentration 1.52 nM): 97%
- Kinase Activity (%) mTOR ([3]; concentration 1.52 nM, 0.00152 µM): 99% and 100% and 94%
- activity at 0.00457 µM ([3]; concentration 4.57 nM): 91%
- Kinase Activity (%) mTOR ([3]; concentration 4.57 nM, 0.00457 µM): 92% and 94% and 87% and 88%
- activity at 0.0412 µM ([3]; concentration 41.2 nM): 52%
- Kinase Activity (%) mTOR ([3]; concentration 41.2 nM, 0.0412 µM): 63% and 57% and 47%
- activity at 0.123 µM ([3]; concentration 123 nM): 29%
- Kinase Activity (%) mTOR ([3]; concentration 123 nM, 0.123 µM): 30% and 32% and 31%
- activity at […] ([3]; concentration 370 nM): 13%
- Kinase Activity (%) mTOR ([3]; concentration 1110 nM, 1.11 µM): 4% and 3% and 5% and 1% and 2%
- Kinase Activity (%) mTOR ([3]; concentration 3330 nM, 3.33 µM): 0% and -1% and -2%
- Kinase Activity (%) mTOR ([3]; concentration 10000 nM, 10 µM): 2% and -1% and 1%
- Growth (%) ([4]; 0.15625 µM, replicates (Fig. 2d)): 82.3145% and 74.8007% and 92.2424% and 95.23%
- Growth (%) ([4]; 0.3125 µM, replicates (Fig. 2d)): 82.5275% and 93.6976% and 99.8925% and 94.4152% and 100.311% and 101.419%
- Growth (%) ([4]; 0.625 µM, replicates (Fig. 2d)): 75.7591% and 84.1959% and 99.0777% and 114.242% and 99.4809% and 107.316%
- Growth (%) ([4]; LP-182 0.625 µM, replicates): 94.49% and 102.748% and 105.532% and 109.611% and 111.9% and 115.3% and 97.84% and 53.1792% and 80% and 77.2254% and 41.1561% and 108.317%
- Growth (%) ([4]; LP-182 5 µM, replicates): 88.52% and 52.137% and 67.274% and 67.1508% and 90.41% and 85.13% and 85.23% and 51.3295% and 50.867% (2×) and 75.3757% and 52.71%
- Growth (%) ([4]; LP-182 10 µM, replicates): 67.22% and 40.3515% and 41.5713% and 43.4811% and 65.18% and 66.4% and 66.22% and 0% and 7.399% and 24.9711% (2×) and 44.7503%
- Growth (%) ([4]; LP-182 20 µM, replicates): 33.48% and 38.226% and 25.5964% and 32.3363% and 26.13% and 25.92% and 25.14% and 0% (4×) and 25.7197%
- Growth (%) ([4]; LP-182 40 µM, replicates): 13.5% and 29.145% and 27.7897% and 24.9557% and 14.69% and 13.53% and 12.78% and 0% (4×) and 22.7255%
- IC50 ([4]; Homo sapiens, read-out: IC50, inhibition of cellular proliferation): 7.6 ± 0.82 µM
- Concentration ([5]; Time 0.167 h): 11100 ng/mL and 8270 ng/mL and 5220 ng/mL
- Concentration ([5]; Time 0.5 h): 807 ng/mL and 646 ng/mL
